According to US20080305038A1, “Transport of Nano-and Macromolecular Structures Into Cytoplasm and Nucleus of Cells” (LUDWIG-MAXIMILIANS-UNIVERSITÄT, priority 2005, published 2008):
“Also recorded” adds a separate entry of the source.

Assays:
HeLa cells = experiment: Cell surface biotinylation for cargo (FITC-Avidin) uptake, FACS; type: cell-based; settings: HeLa cells pretreated 30 minutes at 4° C. at 185 μM, then 75 pmol FITC-Avidin, one hour at 37° C.
Experimental: (§1) Biotin-HPDP (Pierce, #21341) was solubilized in DMF and diluted in PBS (pH=7.4) to a final concentration of 100 μg/ml. 500 μl of this solution (=92.6 nmol) were incubated on CHO and HeLa cells (1×10^6 cells per Well) for 30 minutes at 4° C. After washing twice with PBS, 5 μg (=75 pmol) Avidin-FITC (Sigma, #A9275) were added and cells were incubated for 1 h at 37° C. After incubation, cells were washed twice with PBS and harvested with Trypsin-EDTA (Invitrogen, #25300-054). […] 1000 cells per sample were counted.
(§2) Instead of Biotin-HPDP, also Biotin (Sigma, #B4639), Biotin-Maleimid (Sigma, #B1267) or PBS (for determination of unspecific binding of Avidin-FITC) was incubated on the cells at equimolar concentrations.

CHO cells = experiment: as above; type: cell-based; settings: CHO cells pretreated 30 minutes at 4° C. at 185 μM, then 75 pmol FITC-Avidin, one hour at 37° C.
Experimental: as §1, §2

intact cells = experiment: Dependency of cellular and nuclear uptake on TP-substituent (chemical modification), intact cells; type: cell-based; settings: chemically modified TP-substituent of FITC-BSA-TP
Experimental: 1.3 Modification of FITC-BSA-TP Conjugates FITC-BSA was reacted with a 10-fold excess of cystein in PBS (pH=8, He-saturated) for 3 h. Photometric determination of cleaved thiopyridone indicated complete reaction of FITC-BSA-TP to FITC-BSA-Cys. The conjugate was purified chromatographically (Sephadex G-25 superfine HR 10/10 column; Pharmacia, Uppsala, Sweden). FITC-BSA-TP was reacted in presence of 13 mM DTT for 2 h and purified by chromatography in order to obtain a FITC-BSA conjugate with free thiol-function. Determination of degree of conjugation with Ellmanns' reagent indicated complete separation of the thiopyridone moiety, which, in consequence, led to FITC-BSA-SH. The synthesized FITC-BSA-SH conjugate was further reacted with a 50-fold excess of N-ethylmaleimide for 2 h and purified by chromatography subsequently. Controlling the product for remaining thiol moieties by using Elmanns' reagent indicated a complete reaction to FITC-BSA-NEM. 1.4 Coupling of FITC and SPDP to plasmid-DNA Coupling of FITC and SPDP with plasmid-DNA was carried out by photochemical coupling using psoralenamin. Therefore, a kit from company Sima was used (PS-amine). Coupling was carried out following the manufacturers' instructions. 4 μl of reconstituted psoralenamine solution (4.83 psoralenamine) were pipetted to 100 μl solubilized DNA (μCLuc in pur. water, 200 μg/ml DNA). The resulting solution was vortexed vigorously. The solution was irradiated with UV (λ=366 nm, 6 watt, 850 μwatt/cm^2) for 45 minutes on ice. Portions of each 50 μl were purified using a G-25 Microspin column (Amersham) and, subsequently, 2 μl 1×PBS were added. To one 50 μl fraction of the purified Psoralenamin-coupled DNA 2 μl FITC-NHS solution ([…] in DMF) were added. To the other 50 μl fraction a mixture consisting of 2 μl FITC-NHS (10 mg/ml in DMF) 2 μl SPDP (10 mg/ml in EtOH) were added. The solutions were agitated for 1.5 h at room temperature. Subsequent thereto plasmid-DNA conjugates were purified repeatedly using a G-25 Microspin column (Amersham), and used for cell culture experiments. […]

HepG2 cells [1] = experiment: Uptake in non-fixed and lysed cells, epifluorescence microscopy; type: cell-based
Experimental: In order to exclude artifacts resulting from fixing of cells FITC-modified BSA and FITC-BSA-TP conjugates (5 μM) were incubated for 1 h with HepG2 cells. Subsequently, cells were immediately transferred in PBS or lysed with lysis buffer within 30 minutes and analyzed via epifluorescence microscopy. […] Consequently, artifacts can be excluded due to fixing of cells.
Additionally, cytoplasma membrane of HepG2 of cells was lysed with lysis buffer (20 mM HEPES, 10 mM KCl, 0.5 mM EDTA, 0.1% Triton X-100, pH7.5) subsequent to incubation. […] Consequently, FITC-BSA-TP conjugates are localized in the nucleus.

HepG2 cells [2] = experiment: Quantification of cellular and nuclear uptake by flow cytometry (FACS); type: cell-based; settings: 1 h incubation; for nuclear uptake, nucleus associated FITC fluorescence (FACS): cell lysis with Nonidet P 40, released nucleoli; for cellular uptake (FACS): whole cells detached with trypsine
Experimental: Therefore, HepG2 cells were incubated for 1 h with FITC labelled constructs or with FITC labelled and TP-modified conjugates as used in experiments 1 to 4. After incubation cells were detached from the bottom of the cell culture plates (whole cells) by using either a trypsine containing solution or a trypsine containing solution supplemented with detergent Nonidet P 40. Detergent Nonidet P 40 leads to lysis of cytoplasm membranes and release of nucleoli. Propidiumiodid was added to trypsine buffer in order to identify the nucleoli.

HepG2 cells [3] = experiment: Uptake of conjugates into cells, epifluorescence microscopy; type: cell-based; settings: 1 h incubation, 5 μM, fixed with paraformaldehyde
Experimental: (§3) Corresponding cell lines were seeded in 8-chamber sample carriers (Falcon, #4108, BD Bioscience, Belgium) resulting in about 70-80% confluence next day. Cells were incubated along with inventive conjugates for 1 h at 37° C. and 5% CO2 in an incubator (c=5 μM). Subsequently thereto cells were washed twice with PBS and fixed with a solution containing 4% paraformaldehyde. The nucleoli were colored by using the fluorescence dye DAPI (0.3 μM) or propidiumiodid (3 μM) and cells were embedded (Vectashield, Vector Laboratories, Burlingame, Calif., USA). Photographs were taken using a Sony 3CCD camera having an Axiovert 135-microscope (Carl-Zeiss, Göttingen, Germany; objective: Plan-Neofluar 100×/1.3 oil). Optical transsections for laser scanning microscopy were performed using a confocal microscope having three channels (TCS 4D; Leica Inc. Deerfield, Ill.) equipped with a Plan Apo 63×/1.32 oil objective). Both fluorescence dyes FITC and propidiumiodide were irradiated at wavelengths 488 nm and 567 nm using an argon/krypton laser. 256×256 8 bit pictures were generated having an axial distance of 250 nm and a pixel size of […]. Each picture series consisted of about 20-25 pictures. Both fluorochromes were mapped sequentially in the same nucleolus layer.
Therefore, HepG2 cells were incubated for 1 h with FITC-labelled BSA conjugates (5 μm) and fixed with paraformaldehyde. Results were analysed by epifluorescence microscopy (see FIG. 2). The cellular and nuclear epifluorescence photographs show an FITC signal of BSA in the left column and an FITC-BSA-TP signal in the right column. The corresponding nucleoli were colored using the fluorescent dye propidiumiodid.
Dextran constructs and modifications were prepared analogously to BSA constructs as shown above in section 2.1. As a starting material an amino-modified dextran was used having a molecular weight of 70,000 (MW). […] Analysis was carried out using epifluorescence microscopy (see FIG. 4). The corresponding nucleoli were colored using the fluorescent dye propidiumiodid.
Similar as shown in 2.1 and 2.2 IgG1 constructs were analyzed as to whether they may be transported into the cells upon TP modification. IgG1 constructs and modifications were prepared analogously to BSA and dextran constructs as shown above in sections 2.1 and 2.2. As a starting material bovine IgG was used having a molecular weight of approximately 130,000 (MW). […] Analysis was carried out using epifluorescence microscopy (see FIG. 5). The corresponding nucleoli were colored using the fluorescent dye propidiumiodid.
PEG based negatively charged liposomes were used showing distal unmodified (carboxylic moiety) or TP-modified PEG chains. The liposomes were modified with fluorescence labelled lipids. Thereafter, HepG2 cells were coincubated with fluorescence labelled liposomes and fixed at different times. In order to detect uptake by cells and nucleus, epifluorescence microscopy was carried out (see FIG. 7). The nucleoli were colored with DAPI. From top to bottom a control experiment and the results from 1, 1.5, 2.5 and 4 h incubation are shown.
Therefore, a reporter plasmid encoding the luciferase gene and having a size of 6.4 kb was TP modified and incubated with HepG2 cells for 1 h.

HepG2 cells [4] = experiment: Cellular and nuclear uptake, confocal laser scanning microscopy; type: cell-based
Experimental: as §3
Confocal laser scanning microscopy was additionally carried out (see FIG. 3), since in epifluorescence, microscopy the resulting signal assumable may be due to association of the FITC-BSA-TP conjugates with the nuclear membrane.

[5] = Influence of TP-modification on activity of β-galactosidase; type: biochemical
Experimental: (§4) Analogous to sections 2.1 to 2.3 above the enzyme β-galactosidase was modified with TP. […] Subsequent to modification HepG2 cells were incubated with (TP) modified β-galactosidase (5 μM) for 1 h or 24 h and then fixed in paraformaldehyde. β-galactosidase activity was visualized by using X-Gal (see FIG. 6).

HepG2 cells [6] = experiment: Uptake of β-galactosidase, activity visualized by X-Gal; type: cell-based; settings: 5 μM; for cellular uptake of β-galactosidase / nuclear uptake of β-galactosidase: 1 h or 24 h
Experimental: as §4

O=C(CCCC[C@@H]1SC[C@@H]2NC(=O)N[C@@H]21)NCCCCCCNC(=O)CCSSc1ccccn1 [Biotin-HPDP, N-[6-(Biotinamido)hexyl]-3′-(2′-pyridyldithio)propionamide]
delivery of cargo (FITC-Avidin) to cells, FITC-positive cells by FACS (HeLa cells): efficiently deliver cargo molecules to cells
delivery of cargo (FITC-Avidin) to cells, FITC-positive cells by FACS (CHO cells): efficiently deliver cargo molecules to cells

Biotin-Maleimid
delivery of cargo (FITC-Avidin) to cells, FITC-positive cells by FACS (HeLa cells): highly efficient cargo accumulation at the cellular surface
delivery of cargo (FITC-Avidin) to cells, FITC-positive cells by FACS (CHO cells): highly efficient cargo accumulation at the cellular surface

FITC-BSA-NEM: FITC-BSA-SH reacted with excess N-ethylmaleimide, thiol blocked
cellular or nuclear uptake (intact cells): Neither the free sulfhydryl moiety nor the sulfhydryl moiety blocked by N-ethylmaleimide mediated cellular or nuclear uptake

FITC-BSA-SH: FITC-BSA-TP reacted with DTT, giving FITC-BSA conjugate with free thiol-function
cellular or nuclear uptake (intact cells): Neither the free sulfhydryl moiety nor the sulfhydryl moiety blocked by N-ethylmaleimide mediated cellular or nuclear uptake

FITC-BSA-TP: FITC-labelled BSA reacted with SPDP; thiopyridyl (PDP) conjugation degree ~9-10 per BSA
distribution in fixed versus non-fixed cells (HepG2 cells [1]; 5 μM, 1 h, transferred in PBS without fixing, epifluorescence): identical in both fixed and non-fixed HepG2 cells
fluorescence signal after lysis of cytoplasma membrane (HepG2 cells [1]; lysis buffer with 0.1% Triton X-100 after incubation): a fluorescence signal was clearly observed in the nucleus
cellular or nuclear uptake (intact cells): cellular and nuclear uptake are only observable if an intact TP-substituent is present
nuclear uptake, nucleus associated FITC fluorescence (FACS) (HepG2 cells [2]): 63%
cellular uptake (FACS) (HepG2 cells [2]): 78%
cellular uptake (uptake into cytoplasm) (HepG2 cells [3]): uptake of FITC-BSA-TP constructs into cytoplasm and nucleus
nuclear uptake (uptake into the nucleus) (HepG2 cells [3]): clearly observable; also recorded: uptake of FITC-BSA-TP constructs into cytoplasm and nucleus
cellular uptake (localization in the cytoplasm) (HepG2 cells [4]): cellular uptake
nuclear uptake (localization in the nucleus) (HepG2 cells [4]): Uptake of BSA into the nucleus is clearly observable; also recorded: nuclear uptake of FITC-BSA-TP is observable

FITC-BSA: BSA labelled with carboxyfluorescein-N-hydroxysuccinimidester, without TP modification
nuclear uptake, nucleus associated FITC fluorescence (FACS) (HepG2 cells [2]): 51%
cellular uptake (FACS) (HepG2 cells [2]): 55%
cellular uptake (uptake into cytoplasm) (HepG2 cells [3]): Uptake of non-modified FITC-BSA into cytoplasm of HepG2 cells could also be observed
nuclear uptake (uptake into the nucleus) (HepG2 cells [3]): no uptake of FITC-BSA into the nucleus could be observed
cellular uptake (localization in the cytoplasm) (HepG2 cells [4]): localization in the cytoplasm
nuclear uptake (localization in the nucleus) (HepG2 cells [4]): no localization of non-modified FITC-BSA in the nucleus could be observed

FITC-Dextran
nuclear uptake, nucleus associated FITC fluorescence (FACS) (HepG2 cells [2]): 7%
cellular uptake (FACS) (HepG2 cells [2]): 25%
cellular uptake (uptake into cytoplasm) (HepG2 cells [3]): Uptake of non-modified FITC-Dextran into cytoplasm of HepG2 cells could also be observed
nuclear uptake (uptake into the nucleus) (HepG2 cells [3]): no uptake of FITC-Dextran into the nucleus could be observed

FITC-β-galactosidase-TP: enzyme β-galactosidase modified with thiopyridyl via SPDP, conjugation degree about 1
influence of TP-modification on activity of β-galactosidase [5]: does not exhibit any influence on activity of β-galactosidase
cellular uptake of β-galactosidase (HepG2 cells [6]): uptake of β-galactosidase into cytoplasm and nucleus into many cells
nuclear uptake of β-galactosidase (HepG2 cells [6]): uptake of β-galactosidase into cytoplasm and nucleus into many cells
nuclear uptake of β-galactosidase (HepG2 cells [6]; listed as (TP) modified β-galactosidase): clearly observable
positive cells and nucleoli (HepG2 cells [6]; 24 h incubation): almost all cells and their nucleoli showed a positive signal

non-modified β-galactosidase: enzyme β-galactosidase without TP modification, control
cellular uptake of β-galactosidase (HepG2 cells [6]): negligible
nuclear uptake of β-galactosidase (HepG2 cells [6]): no nuclear uptake
